From patent publication US12187705B2, “Heteroaryl-triazole and heteroaryl-tetrazole compounds as pesticides” (Bayer Aktiengesellschaft, priority 2018, dated 2025)

Tests used:
Assay type in all cases: in vivo
Tetranychus urticae = Tetranychus urticae spray test OP-resistant; details: French bean leaf disks, after 6 days; for mortality at 500 g/ha: Tetranychus urticae, foliar, 144 h; for mortality: 500 g/ha
Procedure: Tetranychus urticae—Spray Test OP-Resistant
(§1) To produce a suitable preparation of active compound, 1 part by weight of active compound is mixed with the stated amount of solvents and is diluted with water, containing an emulsifier concentration of 1000 ppm, to the desired concentration. Further test concentrations are prepared by dilution with emulsifier containing water.
French bean (Phaseolus vulgaris) leaf disks infected with all instars of the two spotted spidermite (Tetranychus urticae), are sprayed with a preparation of the active ingredient of the desired concentration.
After 6 days mortality in % is determined. 100% means all spider mites have been killed and 0% means none of the spider mites have been killed.

Phaedon cochleariae = Phaedon cochleariae spray test; details: foliar, 168 h, Chinese cabbage leaf disks, after 7 days
Procedure: Phaedon cochleariae—Spray Test
as §1
Chinese cabbage (Brassica pekinensis) leaf disks are sprayed with a preparation of the active ingredient of the desired concentration. Once dry, the leaf disks are infested with mustard beetle larvae (Phaedon cochleariae).
After 7 days mortality in % is determined. 100% means all beetle larvae have been killed and 0% means none of the beetle larvae have been killed.

Myzus persicae [1] = test: Myzus persicae oral test; details: 120 h
Method in brief: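 Feeding test: compound diluted in water was combined with IPL41 insect medium (33%+15% sugar) under a parafilm seal. A mixed population of green peach aphids fed through the membrane. Mortality (%) was scored after 5 days.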

Nilaparvata lugens = Nilaparvata lugens spray test; details: Nilaparvata lugens, in Oryza sativa, 96 h
Method in brief: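 Rice plants sprayed with compound diluted in water containing 1000 ppm emulsifier, then infested with brown planthopper. Mortality (%) scored after 4 days, 100% meaning all insects killed.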

Spodoptera frugiperda = Spodoptera frugiperda spray test; details: in Zea mays, 168 h
Method in brief: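 Compound mixed with solvent, diluted with 1000 ppm emulsifier water to test concentrations; sprayed on maize leaf pieces; dried; larvae added; mortality (%) scored at 7 d.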

Diabrotica balteata = Diabrotica balteata spray test; details: 160 μg/well, wheat seeds, after 7 days; for pest or weed control at 160 µg/disc, 160 µg/well: Diabrotica balteata, 168 h, read-out: efficacy (seedlings grown)
Method in brief: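 Wheat seeds germinated 1 day on agar were sprayed with compound diluted in water with 1000 ppm emulsifier, then infested with 10-20 Diabrotica balteata larvae. Efficacy in % scored after 7 days: 100% = seedlings grown as untreated, uninfected control; 0% = no seedlings grown.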

Ctenocephalides felis [2] = test: Ctenocephalides felis in-vitro contact test adult cat flea; details: 5 μg/cm^2 (=500 g/ha), after 48 hours; for pest or weed control at 5 µg/cm2, 5 µg/cm2: Ctenocephalides felis, read-out: efficacy (fleas dead or moribund)
Method in brief: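 Compound in acetone was coated on glass tube walls, giving 5 μg/cm^2 at 900 ppm. 5-10 adult cat fleas were held at room temperature for 48 h, then heat-challenged at 45-50° C. Fleas immotile or uncoordinated were scored dead/moribund, expressed as % efficacy.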

Nezara viridula = Nezara viridula spray test; details: in Hordeum vulgare, 96 h
Method in brief: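 Barley plants infested with stink bug larvae were sprayed with compound diluted in water containing 1000 ppm emulsifier. Mortality (%) was scored after 4 days, 100% meaning all bugs killed.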

Ctenocephalides felis [3] = test: Ctenocephalides felis oral test; details: for mortality at 100 ppm: Ctenocephalides felis, in Bos taurus, po, 48 h
Method in brief: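 About 20 adult unfed fleas fed through parafilm on cattle blood containing compound (DMSO concentrate diluted in blood); blood held at 37° C., fleas at room temperature. Mortality in % scored after 2 days (100% = all killed).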

Boophilus microplus = Boophilus microplus injection test; details: 20 μg/animal, egg deposition after 7 days; for pest or weed control at 0.02 mg: Rhipicephalus microplus, 168 h, read-out: efficacy (infertile eggs)
Method in brief: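 Engorged adult female ticks, five per dose, received 1 μl of compound in DMSO injected into the abdomen and were kept in a climate chamber. Fertile egg deposition was checked after 7 days, with eggs of unclear fertility held until hatching at about 42 days. Efficacy 100% = all eggs infertile, 0% = all fertile.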

[4] = system: cattle ticks (Boophilus microplus) strane Parhurst, SP-resistant; test: Boophilus microplus dip test; details: 100 ppm, egg deposition after 7 days
Procedure: Boophilus microplus—Dip Test
Test animal: cattle ticks (Boophilus microplus) strane Parhurst, SP-resistant
Solvent: dimethyl sulfoxide
To produce a suitable preparation of active compound, 10 mg of active compound are dissolved in 0.5 ml solvent, and the concentrate is diluted with water to the desired concentration.
This compound solution is pipetted into tubes. 8-10 engorged, adult, female cattle ticks (Boophilus microplus) are placed in perforated tubes. These tubes are immersed in the aqueous compound solution until the ticks are completely moistened. After the liquid has drained off, the ticks are transferred to a filter paper in a plastic tray and stored in a climate chamber.
After 7 days egg deposition of fertile eggs is monitored. Eggs where fertility is not visible are stored in a climate chamber till hatching after about 42 days. An efficacy of 100% means all eggs are infertile; 0% means all eggs are fertile.

Rhipicephalus sanguineus = Rhipicephalus sanguineus in-vitro contact test with adult brown dog ticks; details: 5 μg/cm^2 (=500 g/ha), after 48 hours
Procedure: Rhipicephalus sanguineus—In-Vitro Contact Test with Adult Brown Dog Ticks
9 mg compound is solved in 1 ml acetone and diluted with acetone to the desired concentration. 250 μl of the test solution is filled in 25 ml glass test tubes and homogeneously distributed on the inner walls by rotation and tilting on a shaking device (2 h at 30 rpm). With a compound concentration of 900 ppm, an inner surface of 44.7 cm^2 and a homogeneous distribution, a dose of 5 μg/cm^2 is achieved.
After the solvent has evaporated, each test tube is filled with 5-10 adult brown dog ticks (Rhipicephalus sanguineus), closed with a perforated lid and incubated in a lying position at room temperature and relative humidity. After 48 hours efficacy is determined. The ticks are patted on the ground of the tubes and are incubated on a heating plate at 45-50° C. for at most 5 minutes. Immotile or uncoordinated moving ticks, which are not able to escape the heat by climbing upwards, are marked as dead or moribund.
An efficacy of 100% means all ticks are dead or moribund; 0% means no ticks are dead or moribund.

[5] = system: Culex quinquefasciatus strain P00; test: Culex quinquefasciatus test (CULXFA surface treatment & contact assay); details: 24 hours after contact, read-out: efficacy (mortality); for mortality at 4 mg/m2: surface concentration 4 mg/m^2, 30 minutes exposure; for mortality at 20 mg/m2: surface concentration 20 mg/m^2, 30 minutes exposure
Method in brief: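 Compound dissolved in acetone (2 mg/ml) with 2000 ppm rapeseed oil methyl ester, applied to glazed tile and dried. Adult strain P00 mosquitoes exposed to the surface for 30 minutes. Percent mortality scored 24 hours after contact.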

[6] = system: Aedes aegypti strain MONHEIM; test: Aedes aegypti test (AEDSAE surface treatment & contact assay); details: 24 hours after contact, read-out: efficacy (mortality); for mortality at 4 mg/m2: surface concentration 4 mg/m^2, 30 minutes exposure; for mortality at 20 mg/m2: surface concentration 20 mg/m^2, 30 minutes exposure
Method in brief: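 Compound dissolved in acetone (2 mg/ml) with 2000 ppm rapeseed oil methyl ester and dried onto a glazed tile. Adult mosquitoes held on the treated surface for 30 minutes exposure. Percent mortality scored 24 hours after contact.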

Myzus persicae [7] = test: Myzus persicae spray test; details: in Brassica rapa, foliar, 120 h
Method in brief: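 Chinese cabbage leaf disks infested with all aphid instars were sprayed with compound diluted in water containing emulsifier (1000 ppm). Mortality (%) was scored after 5 days, 100% meaning all aphids killed.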

SMILES	mortality at 500 g/ha (Phaedon cochleariae)	mortality at 4 ppm (Myzus persicae [1])	mortality at 20 ppm (Myzus persicae [1])	mortality at 500 g/ha (Nilaparvata lugens)	mortality at 500 g/ha (Spodoptera frugiperda)	pest or weed control at 160 µg/disc, 160 µg/well (Diabrotica balteata)	pest or weed control at 5 µg/cm2, 5 µg/cm2 (Ctenocephalides felis [2])	mortality at 500 g/ha (Nezara viridula)	mortality at 100 ppm (Ctenocephalides felis [3])	pest or weed control at 0.02 mg (Boophilus microplus)	efficacy (infertile eggs) [4]	mortality at 20 mg/m2 [5]	mortality at 20 mg/m2 [6]	other results
CC(c1ncnn1-c1ncccn1)N(CC1CC1)C(=O)c1cccc(S(=O)(=O)C(F)(F)F)c1 (stereo not shown) [Example I-005, N-(cyclopropylmethyl)-N-{1-[1-(pyrimidin-2-yl)-1H-1,2,4-triazol-5-yl]ethyl}-3-[(trifluoromethyl)sulfonyl]benzamide]	100%	90%	100%	100%	100%	100%	90%	100%						mortality at 500 g/ha (Tetranychus urticae): 80%
CC(c1ncnn1-c1ncccn1)N(CC1CC1)C(=O)c1cc(C2CC2)cc(C(F)(F)F)c1 (stereo not shown) [Example I-008]	100%	100%	100%	100%	100%	100%		100%						mortality at 500 g/ha (Tetranychus urticae): 95%
CC(NC(=O)c1cc(Cl)cc(S(C)(=O)=O)c1)c1ncnn1-c1ncccn1 (stereo not shown) [Example I-020, 3-chloro-5-(methylsulfonyl)-N-{1-[1-(pyrimidin-2-yl)-1H-1,2,4-triazol-5-yl]ethyl}benzamide]	100%	100%	100%	100%		100%	100%	100%	100%	100%	100%			
Cc1nc(C(C)NC(=O)c2cc(Cl)cc(S(C)(=O)=O)c2)n(-c2ncccn2)n1 (stereo not shown) [Example I-034]											100%			efficacy (ticks dead or moribund) (Rhipicephalus sanguineus): 80%; efficacy (infertile eggs) (Boophilus microplus): 100%; efficacy (seedlings grown) (Diabrotica balteata): 100%; efficacy (fleas dead or moribund) (Ctenocephalides felis [2]): 100%
CC(NC(=O)c1cc(Cl)cc(S(C)(=O)=O)c1)c1ncnn1-c1ncc(F)cn1 (stereo not shown) [Example I-036]											90%			efficacy (ticks dead or moribund) (Rhipicephalus sanguineus): 80%; efficacy (infertile eggs) (Boophilus microplus): 100%; efficacy (seedlings grown) (Diabrotica balteata): 100%; efficacy (fleas dead or moribund) (Ctenocephalides felis [2]): 100%
C[C@@H](NC(=O)c1cc(Cl)cc(S(C)(=O)=O)c1)c1ncnn1-c1ncc(Cl)cn1 [Example I-038]		100%			100%		100%	100%	100%	100%	100%	80 to 100%	90 to 100%	mortality at 4 mg/m2 [5]: 80 to 100%; mortality at 4 mg/m2 [6]: 80 to 100%
CCS(=O)(=O)c1cc(Cl)cc(C(=O)N[C@@H](C)c2ncnn2-c2ncccn2)c1 [Example I-044, 3-chloro-5-(ethylsulfonyl)-N-{(1S)-1-[1-(pyrimidin-2-yl)-1H-1,2,4-triazol-5-yl]ethyl}benzamide]		100%		100%	83%	100%	100%	100%	100%	100%	100%	80 to 100%	90 to 100%	mortality at 4 mg/m2 [5]: 80 to 100%; mortality at 4 mg/m2 [6]: 80 to 100%; mortality at 500 g/ha (Myzus persicae [7]): 100%
CC(C)Sc1cc(Cl)cc(C(=O)N[C@@H](C)c2ncnn2-c2ncccn2)c1 [Example I-046, 3-chloro-5-(isopropylsulfanyl)-N-{(1S)-1-[1-(pyrimidin-2-yl)-1H-1,2,4-triazol-5-yl]ethyl}benzamide]		100%		90%	100%		100%	100%	100%	100%	100%	80 to 100%	90 to 100%	mortality at 500 g/ha (Myzus persicae [7]): 100%
CC(NC(=O)c1ccc(S(=O)(=O)C(F)(F)F)cc1)c1ncnn1-c1ncccn1 (stereo not shown) [Example I-056]														mortality (Ctenocephalides felis [3]; 100 ppm in cattle blood, after 2 days): 90%; mortality (Tetranychus urticae): 90%
CC(NC(=O)c1cncc(-c2ccc(Cl)cc2)c1)c1ncnn1-c1ncccn1 (stereo not shown) [Example I-112]														mortality (Tetranychus urticae): 90%
